Species: Rattus norvegicus
Experiment: DrugMatrix - Regimen: Daily Repeat
Format: toxicity, organism-based, Sprague-Dawley
Set-up: regimen Daily Repeat, gender Male, age 6-8 weeks
Conditions: in vivo, po, route oral GAVAGE, vehicle 100 % WATER; for ABSOLUTE BASOPHIL / ABSOLUTE EOSINOPHIL / ABSOLUTE LYMPHOCYTE / ABSOLUTE MONOCYTE / ABSOLUTE SEGMENTED NEUTROPHIL / BASOPHIL / EOSINOPHIL / ERYTHROCYTE COUNT / HEMATOCRIT / HEMOGLOBIN / LEUKOCYTE COUNT / LYMPHOCYTE / MEAN CORPUSCULAR HEMOGLOBIN / MEAN CORPUSCULAR HEMOGLOBIN CONCENTRATION / MEAN CORPUSCULAR VOLUME / MONOCYTE / NEUTROPHIL / NUCLEATED RED BLOOD CELLS / PLATELET COUNT: tissue Blood; for ALANINE AMINOTRANSFERASE / ALBUMIN / ALKALINE PHOSPHATASE / ASPARTATE AMINOTRANSFERASE / BLOOD UREA NITROGEN / CARBON DIOXIDE / CHLORIDE / CHOLESTEROL / CREATINE PHOSPHOKINASE / CREATININE / GLUCOSE / LACTATE DEHYDROGENASE / LIPASE / PHOSPHORUS / POTASSIUM / SODIUM / TOTAL BILIRUBIN / TOTAL PROTEIN / URIC ACID: tissue Plasma
[1] = 100 mg/kg, 120 h, dose level Low, time 5 day
[2] = 2500 mg/kg, 72 h, dose level High, time 3 day
[3] = 2500 mg/kg, 120 h, dose level High, time 5 day

Question: Which results are given for `NCC1(CC(=O)O)CCCCC1` [GABAPENTIN]?
Answer: ABSOLUTE BASOPHIL [1]: 0 CELLS/uL; ABSOLUTE EOSINOPHIL [1]: 0 CELLS/uL; ABSOLUTE LYMPHOCYTE [1]: 13861.67 CELLS/uL; ABSOLUTE MONOCYTE [1]: 159 CELLS/uL; ABSOLUTE SEGMENTED NEUTROPHIL [1]: 1246 CELLS/uL; BASOPHIL [1]: 0%; EOSINOPHIL [1]: 0%; ERYTHROCYTE COUNT [1]: 5.64 x10E6/uL; HEMATOCRIT [1]: 35.7%; HEMOGLOBIN [1]: 14.27 G/DL; LEUKOCYTE COUNT [1]: 15.27 x10E3/uL; LYMPHOCYTE [1]: 91%; MEAN CORPUSCULAR HEMOGLOBIN [1]: 25.33 pg; MEAN CORPUSCULAR HEMOGLOBIN CONCENTRATION [1]: 39.97 G/DL; MEAN CORPUSCULAR VOLUME [1]: 63.33 fL; MONOCYTE [1]: 1%; NEUTROPHIL [1]: 8%; NUCLEATED RED BLOOD CELLS [1]: 0 /100WBC; PLATELET COUNT [1]: 1093 x10E3/uL; ALANINE AMINOTRANSFERASE [1]: 54.67 u/L; ALBUMIN [1]: 4.37 G/DL; ALKALINE PHOSPHATASE [1]: 380.67 u/L; ASPARTATE AMINOTRANSFERASE [1]: 86 u/L; BLOOD UREA NITROGEN [1]: 15.67 mg/dL; CARBON DIOXIDE [1]: 31.33 mmol/L; CHLORIDE [1]: 101.67 MEQ/L; CHOLESTEROL [1]: 72.33 mg/dL; CREATINE PHOSPHOKINASE [1]: 410.33 u/L; CREATININE [1]: 0.16 mg/dL; GLUCOSE [1]: 172.67 mg/dL; LACTATE DEHYDROGENASE [1]: 185.67 u/L; LIPASE [1]: 9.67 u/L; PHOSPHORUS [1]: 11.93 mg/dL; POTASSIUM [1]: 6 MEQ/L; SODIUM [1]: 144.93 MEQ/L; TOTAL BILIRUBIN [1]: 0.1 mg/dL; TOTAL PROTEIN [1]: 6.07 G/DL; URIC ACID [1]: 1.23 mg/dL; ABSOLUTE BASOPHIL [2]: 0 CELLS/uL; ABSOLUTE EOSINOPHIL [2]: 0 CELLS/uL; ABSOLUTE LYMPHOCYTE [2]: 17008 CELLS/uL; ABSOLUTE MONOCYTE [2]: 0 CELLS/uL; ABSOLUTE SEGMENTED NEUTROPHIL [2]: 1925.33 CELLS/uL; BASOPHIL [2]: 0%; EOSINOPHIL [2]: 0%; ERYTHROCYTE COUNT [2]: 5.55 x10E6/uL; HEMATOCRIT [2]: 36.63%; HEMOGLOBIN [2]: 14.27 G/DL; LEUKOCYTE COUNT [2]: 18.93 x10E3/uL; LYMPHOCYTE [2]: 90%; MEAN CORPUSCULAR HEMOGLOBIN [2]: 25.7 pg; MEAN CORPUSCULAR HEMOGLOBIN CONCENTRATION [2]: 38.93 G/DL; MEAN CORPUSCULAR VOLUME [2]: 66.03 fL; MONOCYTE [2]: 0%; NEUTROPHIL [2]: 10%; NUCLEATED RED BLOOD CELLS [2]: 0.33 /100WBC; PLATELET COUNT [2]: 1357 x10E3/uL; ALANINE AMINOTRANSFERASE [2]: 70.67 u/L; ALBUMIN [2]: 4.47 G/DL; ALKALINE PHOSPHATASE [2]: 324.33 u/L; ASPARTATE AMINOTRANSFERASE [2]: 79.67 u/L; BLOOD UREA NITROGEN [2]: 15 mg/dL; CARBON DIOXIDE [2]: 30.67 mmol/L; CHLORIDE [2]: 99.67 MEQ/L; CHOLESTEROL [2]: 90 mg/dL; CREATINE PHOSPHOKINASE [2]: 203.33 u/L; CREATININE [2]: 0.15 mg/dL; GLUCOSE [2]: 164.33 mg/dL; LACTATE DEHYDROGENASE [2]: 162 u/L; LIPASE [2]: 11.33 u/L; PHOSPHORUS [2]: 13.37 mg/dL; POTASSIUM [2]: 6.75 MEQ/L; SODIUM [2]: 143.83 MEQ/L; TOTAL BILIRUBIN [2]: 0.1 mg/dL; TOTAL PROTEIN [2]: 6.13 G/DL; URIC ACID [2]: 2.23 mg/dL; ABSOLUTE BASOPHIL [3]: 0 CELLS/uL; ABSOLUTE EOSINOPHIL [3]: 0 CELLS/uL; ABSOLUTE LYMPHOCYTE [3]: 12458 CELLS/uL; ABSOLUTE MONOCYTE [3]: 100 CELLS/uL; ABSOLUTE SEGMENTED NEUTROPHIL [3]: 1842 CELLS/uL; BASOPHIL [3]: 0%; EOSINOPHIL [3]: 0%; ERYTHROCYTE COUNT [3]: 5.12 x10E6/uL; HEMATOCRIT [3]: 32.03%; HEMOGLOBIN [3]: 13.13 G/DL; LEUKOCYTE COUNT [3]: 14.4 x10E3/uL; LYMPHOCYTE [3]: 86.33%; MEAN CORPUSCULAR HEMOGLOBIN [3]: 25.67 pg; MEAN CORPUSCULAR HEMOGLOBIN CONCENTRATION [3]: 41 G/DL; MEAN CORPUSCULAR VOLUME [3]: 62.57 fL; MONOCYTE [3]: 0.67%; NEUTROPHIL [3]: 13%; NUCLEATED RED BLOOD CELLS [3]: 0 /100WBC; PLATELET COUNT [3]: 1217 x10E3/uL; ALANINE AMINOTRANSFERASE [3]: 71.67 u/L; ALBUMIN [3]: 4.3 G/DL; ALKALINE PHOSPHATASE [3]: 373 u/L; ASPARTATE AMINOTRANSFERASE [3]: 84.67 u/L; BLOOD UREA NITROGEN [3]: 19.67 mg/dL; CARBON DIOXIDE [3]: 28.67 mmol/L; CHLORIDE [3]: 102.33 MEQ/L; CHOLESTEROL [3]: 64 mg/dL; CREATINE PHOSPHOKINASE [3]: 156 u/L; CREATININE [3]: 0.17 mg/dL; GLUCOSE [3]: 148.33 mg/dL; LACTATE DEHYDROGENASE [3]: 96.67 u/L; LIPASE [3]: 8 u/L; PHOSPHORUS [3]: 11.7 mg/dL; POTASSIUM [3]: 6.37 MEQ/L; SODIUM [3]: 144.6 MEQ/L; TOTAL BILIRUBIN [3]: 0.17 mg/dL; TOTAL PROTEIN [3]: 6.03 G/DL; URIC ACID [3]: 1.33 mg/dL

From ChEMBL document CHEMBL3885881, “DrugMatrix”
